# Measured values published in patent US5202315A, “Cephalosporin compounds” (Lucky, Ltd., priority 1989, dated 1993).
# What was measured:
# Assay in all cases: Antibacterial activity, MIC
# Type in all cases: cell-based
# [1] = system: Bacillus megaterium ATCC 9885; settings: Priestia megaterium, ATCC9885; ATCC 9885; agar two-fold dilution, 37° C., 20 hours; read-out: MIC
# Experimental: (§1) Also, the in vitro antibacterial activity was determined by the by a two-fold dilution method as described below:
# (§2) That is, the two-fold serial dilutions of the compound were made dispersed in Muller-Hinton agar medium. 2 μl of standard test strain which had the 10^7 CFU per ml was inoculated on the medium, and was incubated at 37° C. for 20 hours.
# [2] = system: Staphylococcus aureus ATCC 10537; settings: ATCC10537, ATCC 10537, agar two-fold dilution, 37° C., 20 hours, read-out: MIC
# Experimental: as §1, §2
# [3] = system: Acinetobacter calcoaceticus ATCC 15473; settings: ATCC15473, ATCC 15473, agar two-fold dilution, 37° C., 20 hours, read-out: MIC
# Experimental: as §1, §2
# [4] = system: Pseudomonas aeruginosa ATCC 25619; settings: ATCC25619, ATCC 25619, agar two-fold dilution, 37° C., 20 hours, read-out: MIC
# Experimental: as §1, §2
# [5] = system: Citrobacter freundii ATCC 8090; settings: ATCC8090, ATCC 8090, agar two-fold dilution, 37° C., 20 hours, read-out: MIC
# Experimental: as §1, §2
# [6] = system: Enterobacter aerogenes ATCC 29751; settings: Klebsiella aerogenes, ATCC29751; ATCC 29751; agar two-fold dilution, 37° C., 20 hours; read-out: MIC
# Experimental: as §1, §2
# [7] = system: Pseudomonas aeruginosa ATCC 10145; settings: ATCC10145, ATCC 10145, agar two-fold dilution, 37° C., 20 hours, read-out: MIC
# Experimental: as §1, §2
# [8] = system: Enterobacter cloacae ATCC 27508; settings: ATCC27508, ATCC 27508, agar two-fold dilution, 37° C., 20 hours, read-out: MIC
# Experimental: as §1, §2
# [9] = system: Escherichia coli ATCC 10536; settings: ATCC10536, agar two-fold dilution, 37° C., 20 hours
# Experimental: as §1, §2
# [10] = system: Micrococcus luteus ATCC 9341; settings: ATCC9341, ATCC 9341, agar two-fold dilution, 37° C., 20 hours, read-out: MIC
# Experimental: as §1, §2
# [11] = system: Shigella flexneri ATCC 11836; settings: ATCC11836, agar two-fold dilution, 37° C., 20 hours
# Experimental: as §1, §2
# [12] = system: Streptococcus faecalis ATCC 29212; settings: Enterococcus faecalis, ATCC29212; ATCC 29212; agar two-fold dilution, 37° C., 20 hours; read-out: MIC
# Experimental: as §1, §2
# [13] = system: Proteus vulgaris ATCC 6059; settings: ATCC6059, ATCC 6059, agar two-fold dilution, 37° C., 20 hours, read-out: MIC
# Experimental: as §1, §2
# [14] = system: Klebsiella pneumoniae ATCC 10031; settings: ATCC10031, ATCC 10031, agar two-fold dilution, 37° C., 20 hours, read-out: MIC
# Experimental: as §1, §2
# [15] = system: Staphylococcus aureus ATCC 6538p; settings: ATCC6538P, ATCC 6538p, agar two-fold dilution, 37° C., 20 hours, read-out: MIC
# Experimental: as §1, §2
# [16] = system: Proteus mirabilis ATCC 25933; settings: ATCC25933, ATCC 25933, agar two-fold dilution, 37° C., 20 hours, read-out: MIC
# Experimental: as §1, §2
# [17] = system: Morganella morganii ATCC 8076h; settings: ATCC8076H, agar two-fold dilution, 37° C., 20 hours
# Experimental: as §1, §2
# [18] = system: Serratia marcescens ATCC 27117; settings: ATCC27117, ATCC 27117, agar two-fold dilution, 37° C., 20 hours, read-out: MIC
# Experimental: as §1, §2
# [19] = system: Staphylococcus epidermidis ATCC 12228; settings: ATCC12228, ATCC 12228, agar two-fold dilution, 37° C., 20 hours, read-out: MIC
# Experimental: as §1, §2
# [20] = system: Escherichia coli ATCC 25922; settings: ATCC25922, agar two-fold dilution, 37° C., 20 hours
# Experimental: as §1, §2
# [21] = system: Bacillus cereus ATCC 11778; settings: ATCC11778, ATCC 11778, agar two-fold dilution, 37° C., 20 hours, read-out: MIC
# Experimental: as §1, §2
# [22] = system: Providencia rettgeri ATCC 9250; settings: ATCC9250, agar two-fold dilution, 37° C., 20 hours
# Experimental: as §1, §2
# [23] = system: Salmonella typhimurium ATCC 14028; settings: Salmonella enterica; ATCC 14028; agar two-fold dilution, 37° C., 20 hours; read-out: MIC
# Experimental: as §1, §2
# [24] = system: Shigella sonnei ATCC 11060; settings: ATCC11060, ATCC 11060, agar two-fold dilution, 37° C., 20 hours, read-out: MIC
# Experimental: as §1, §2
# [25] = system: Pseudomonas aeruginosa ATCC 27853; settings: ATCC27853, ATCC 27853, agar two-fold dilution, 37° C., 20 hours, read-out: MIC
# Experimental: as §1, §2
Compound,MIC [1] [µg/mL],MIC [2] [µg/mL],MIC [3] [µg/mL],MIC [4] [µg/mL],MIC [5] [µg/mL],MIC [6] [µg/mL],MIC [7] [µg/mL],MIC [8] [µg/mL],MIC [9] [µg/mL],MIC [10] [µg/mL],MIC [11] [µg/mL],MIC [12] [µg/mL],MIC [13] [µg/mL],MIC [14] [µg/mL],MIC [15] [µg/mL],MIC [16] [µg/mL],MIC [17] [µg/mL],MIC [18] [µg/mL],MIC [19] [µg/mL],MIC [20] [µg/mL],further results
CCC[n+]1c(N)cc(N)nc1SCC1=C(C(=O)[O-])N2C(=O)C(NC(=O)/C(=N\OC(C)(C)C(=O)O)c3nsc(N)n3)C2SC1 (stereo not drawn) [Compound I-28],0.25,4,8,2,0.13,4,4,0.031,0.13,0.5,0.063,> 128,0.25,0.13,8,0.13,≤ 0.008,0.25,4,0.13,MIC [21]: 128 µg/mL; MIC [22]: ≤ 0.008 µg/mL; MIC [23]: 0.5 µg/mL; MIC [24]: 0.13 µg/mL; MIC [25]: 2 µg/mL
C=CCO/N=C(\C(=O)NC1C(=O)N2C(C(=O)[O-])=C(CSc3nc(N)cc(N)[n+]3C)CSC12)c1csc(N)n1 (stereo not drawn) [Compound I-49],0.25,0.25,8,1,0.25,1,16,0.031,0.25,0.031,0.063,16,0.5,0.016,0.25,0.5,≤ 0.008,0.5,0.13,0.25,MIC [21]: 32 µg/mL; MIC [22]: ≤ 0.008 µg/mL; MIC [23]: 1 µg/mL; MIC [24]: 0.25 µg/mL; MIC [25]: 8 µg/mL
CO/N=C(\C(=O)NC1C(=O)N2C(C(=O)[O-])=C(CSc3nc(N)cc(N)[n+]3C)CSC12)c1nsc(N)n1 (stereo not drawn) [Compound I-24],0.25,0.5,2,4,0.13,1,16,0.063,0.13,0.13,0.031,32,1,0.031,0.5,1,0.063,0.25,0.25,0.13,MIC [21]: 32 µg/mL; MIC [22]: 0.016 µg/mL; MIC [23]: 0.5 µg/mL; MIC [24]: 0.13 µg/mL; MIC [25]: 4 µg/mL
